Drawing on the Kinase Knowledgebase extract (Sharma et al. 2016), this text covers IC50 for 58 molecules.

The assay concerns the target MAPK14;MAPK11;MAPK12 (human) (UniProt Q16539). The assay is described as follows: Inhibition of p38 Kinase Activity.

One may read the IC50 as the concentration that gives 50% inhibition. A lower IC50 goes with greater potency in that assay. On to `c1nc2ccc(Nc3nc(CCC4CCCCC4)nc(N4CCNCC4)n3)cc2s1`, for which the IC50 was below 10000 nM. Then `Cc1ccc(C(N)=O)cc1Nc1nc(N[C@H]2CCN(c3ccccc3)C2)nc(N(C)CC(C)(C)C)n1`, with below 1000 nM; and `Cc1cc(Cl)c(C(N)=O)cc1Nc1nc(N[C@H]2CCNC2)nc(N(C)CC(C)(C)C)n1`, with below 1000 nM; and `CC(CNc1nc(Nc2ccc3ncsc3c2)nc(N(C)CCCN(C)C(=O)C2CCOC2)n1)c1ccccc1` (stereo not drawn), with below 10000 nM.

For the molecule `CNc1nc(Nc2cc(C(=O)NOC)ccc2C)nc(N(C)CC(C)(C)C)n1`, the IC50 is below 1000 nM.

Consider `CCCCNC(=O)c1ccc(C)c(Nc2nc(N[C@H]3CCNC3)nc(N(C)CC(C)(C)C)n2)c1`, for which the concentration for half-maximal inhibition (IC50) was below 1000 nM. In the case of `CC1(C)[C@@H]2CC[C@@H](CNc3nc(NC4CCNCC4)nc(N4CCc5ccc([N+](=O)[O-])cc54)n3)[C@H]1C2`, the half-maximal inhibitory concentration (IC50) was below 1000 nM.

`CCONC(=O)c1ccc(C)c(Nc2nc(N(C)CC(C)(C)C)nc(N3CCCN(C)CC3)n2)c1`: the IC50 was below 1000 nM.

On to `Cc1ccc(C(N)=O)cc1Nc1nc(N[C@H]2CCN(Cc3cccc(C#N)c3)C2)nc(N(C)CC(C)C)n1`, for which the IC50 is below 1000 nM.

As to `CC(C)Oc1nc(NCC(C)c2ccccc2)nc(Nc2ccc3ncsc3c2)n1` (stereo not drawn), the IC50 was below 10000 nM.

`Cc1c(Nc2nc(NC[C@@H]3CC[C@H]4C[C@H]3C4(C)C)nc(N(C)CC(C)C)n2)cccc1C(N)=O` showed an IC50 below 1000 nM. Then `CNC(=O)c1ccc(C)c(Nc2nc(NCC(C)(C)C)nc(N[C@H]3CCNC3)n2)c1`, with below 1000 nM; and `Cc1ccc(C(N)=O)cc1Nc1nc(N[C@H]2CCCC[C@H]2NC(=O)CO[C@H]2C[C@@H](C)CC[C@H]2C(C)C)nc(N(C)CC(C)C)n1`, with below 1000 nM; and `Cc1ccc(C(N)=O)cc1Nc1nc(N[C@H]2CCN(C(=O)c3ccccn3)C2)nc(N(C)CC(C)C)n1`, with below 1000 nM.

Turning to `COCC(C)N1CC[C@@H](Nc2nc(Nc3cc(C(N)=O)ccc3C)nc(N(C)CC(C)(C)C)n2)C1` (stereo partly drawn), the IC50 was below 1000 nM. `CC(CCCCCCN(C)c1nc(NCC(C)c2ccccc2)nc(Nc2ccc3ncsc3c2)n1)C(N)=O` (stereo not drawn): the IC50 is below 10000 nM.

In the case of `Cc1ccccc1NC(=S)N1CCN(c2nc(NCC(C)c3ccccc3)nc(Nc3ccc4ncsc4c3)n2)CC1` (stereo not drawn), the IC50 was below 10000 nM. To `CC(C)c1nc(Nc2ccc3ncsc3c2)nc(N2CCNCC2)n1` belongs below 10000 nM; to `CC(CN(C)c1nc(Nc2ccc3ncsc3c2)nc(N(C)C)n1)c1ccccc1` (stereo not drawn), below 10000 nM; to `CNC(=O)c1ccc(C)c(Nc2nc(N[C@H]3CCNC3)nc(N(C)CC3CCCC3)n2)c1`, below 1000 nM. For `CCCCN(C)c1nc(Nc2cc(C(N)=O)ccc2C)nc(N[C@H]2CCNC2)n1`, the IC50 is below 1000 nM. To `CCONC(=O)c1ccc(C)c(Nc2nc(N[C@@H]3CCNC3)nc(N(C)CC(C)C(F)(F)F)n2)c1` (stereo partly drawn) belongs below 1000 nM; to `CONC(=O)c1ccc(C)c(Nc2nc(N)nc(N(C)CC(C)(C)C)n2)c1`, below 1000 nM; to `Cc1c(Cl)cc(C(N)=O)cc1Nc1nc(N[C@H]2CCNC2)nc(N(C)CC(C)(C)C)n1`, below 1000 nM. Then `Cc1ccc(C(N)=O)cc1Nc1nc(O[C@H]2CCNC2)nc(N(C)CC(C)(C)C)n1`, with below 1000 nM; and `COc1ccccc1CN1CCC(Nc2nc(Nc3cc(C(N)=O)ccc3C)nc(N(C)CC(C)C)n2)C1` (stereo not drawn), with below 1000 nM; and `CN(CC(C)(C)C)c1nc(Cc2cccc(C(N)=O)c2)nc(N[C@H]2CCNC2)n1`, with below 1000 nM. To `CNCCN(C)c1nc(NCc2ccc(F)cc2F)nc(Nc2ccc3ncsc3c2)n1` belongs below 10000 nM. `CCC(C)N1CC[C@@H](Nc2nc(Nc3cc(C(N)=O)ccc3C)nc(N(C)CC(C)C)n2)C1` (stereo partly drawn): the IC50 is below 1000 nM. To `CCNC(=O)N1CC2CC1CN2c1nc(NCC(C)c2ccccc2)nc(Nc2ccc3ncsc3c2)n1` (stereo not drawn) belongs below 10000 nM; to `Cc1ccc(C(N)=O)cc1Nc1nc(N[C@@H]2CCNC2)nc(-c2cccc(Cl)c2)n1`, below 1000 nM. To `CCOC(=O)N1CCC(N(C)c2nc(Nc3cc(C(N)=O)ccc3C)nc(N(C)CC(C)C)n2)C1` (stereo not drawn) belongs below 1000 nM.

Consider `CONC(=O)c1ccc(C)c(Nc2nc(NCCCN3CCCC3)nc(N(C)CC(C)(C)C)n2)c1`, for which the IC50 was below 1000 nM. Regarding `CCC(C)(C)c1nc(Nc2cc(C(N)=O)ccc2C)nc(N[C@H]2CCNC2)n1`, the IC50 was below 1000 nM. `CC1(C)[C@H]2CCC(COc3nc(Cl)nc(Nc4ccc5ncsc5c4)n3)[C@@H]1C2` (stereo partly drawn) came in with a half-inhibitory concentration (IC50) below 10000 nM. In the case of `CC(C)OCCNc1cc(N2CCNCC2)nc(-n2cnc3ccccc32)n1`, the IC50 was below 10000 nM. Then `CCCCNc1nc(Nc2cc(C(=O)NOC)ccc2C)nc(N(C)CC(C)(C)C)n1`, with below 1000 nM; and `CNC(=O)c1ccc(C)c(Sc2nc(NCc3ccccn3)nc(N(C)CC(C)(C)C)n2)c1`, with below 30000 nM. Then `CONC(=O)c1ccc(C)c(Nc2nc(N(C)CC(C)(C)C)nc(-n3ccnc3)n2)c1`, with below 1000 nM; and `CNC(=O)CCC(=O)N1CCN(c2nc(NCC3CCC4CC3C4(C)C)nc(Nc3ccc4ncsc4c3)n2)CC1` (stereo not drawn), with below 10000 nM.

`CNC(=O)c1ccc(C)c(Oc2nc(NCc3ccccn3)nc(N(C)CC(C)(C)C)n2)c1` registered an IC50 below 30000 nM. To `Cc1ccc(C(N)=O)cc1Nc1cc(N(C)CC(C)C)nc(N[C@H]2CCNC2)n1` belongs below 1000 nM. Consider `CCNC(=O)N1CCN(c2nc(NC[C@@H]3CC[C@H]4C[C@@H]3C4(C)C)nc(Nc3ccc4ncsc4c3)n2)CC1`, for which the IC50 was below 10000 nM.

In turn, `CC(CNc1nc(Nc2ccc3ncsc3c2)nc(N2CC3CC2CN3C(=O)c2cccnc2)n1)c1ccccc1` (stereo not drawn) had an IC50 below 10000 nM. `Cc1ccc(C(N)=O)cc1Nc1nc(NCC(C)(C)C)nc(N[C@@H]2CCNC2)n1` returned an IC50 below 1000 nM.

With `CCN1CC[C@@H](Nc2nc(Nc3cc(C(N)=O)ccc3C)nc(N(C)CC(C)(C)C)n2)C1`, the half-inhibitory concentration (IC50) is below 1000 nM. To `COc1ncc(CN2CC[C@@H](Nc3nc(Nc4cc(C(N)=O)ccc4C)nc(N(C)CC(C)C)n3)C2)c(OC)n1` belongs below 1000 nM.

Turning to `CC(C)CN(C)c1nc(Nc2cc(C(N)=O)ccc2C(F)(F)F)nc(N[C@H]2CCNC2)n1`, the IC50 was below 1000 nM. Then `Cc1ccccc1NC(=S)N(C)CCCN(C)c1nc(NCC(C)c2ccccc2)nc(Nc2ccc3ncsc3c2)n1` (stereo not drawn), with below 10000 nM; and `CC1(C)[C@H]2CC[C@H](CNc3nc(Cl)nc(Nc4ccc5ncsc5c4)n3)[C@@H]1C2`, with below 10000 nM; and `CONC(=O)c1ccc(C)c(Nc2nc(N(C)C)nc(N(C)CC(C)(C)C)n2)c1`, with below 1000 nM.

`Cc1ccc(C(N)=O)cc1Nc1nc(N[C@H]2CCCC[C@H]2NC(=O)CC(C)C)nc(N(C)CC(C)C)n1`: the half-maximal inhibitory concentration (IC50) was below 1000 nM. To `Clc1nc(Nc2ccc3ncsc3c2)nc(N2CCc3ccccc3C2)n1` belongs below 10000 nM; to `Cc1ccc(C(N)=O)cc1Nc1nc(N[C@H]2CCN(Cc3ccc(Cl)cc3)C2)nc(N(C)CC(C)C)n1`, below 1000 nM; to `Cc1ccc(C(N)=O)cc1Nc1nc(N[C@@H]2CCN(C(C)C(F)(F)F)C2)nc(N(C)CC(C)(C)C)n1` (stereo partly drawn), below 1000 nM.

Molecule `Cc1ccc(C(N)=O)cc1Nc1nc(N[C@H]2CCN(C3CCC3)C2)nc(N(C)CC(C)(C)C)n1` registered an IC50 below 1000 nM.

Take `CC1(C)C2CCC(CNc3nc(Nc4ccc5ncsc5c4)nc(N4CCC(C(N)=O)CC4)n3)C1C2` (stereo not drawn): the IC50 is below 10000 nM. Regarding `Cc1ccc(C(N)=O)cc1Oc1nc(N[C@@H]2CCNC2)nc(N(C)CC(C)(C)C)n1`, the 50% inhibitory concentration (IC50) was below 30000 nM.
